According to US20100311726A1, “REDUCTION OF BETA-AMYLOID LEVELS BY TREATMENT WITH THE SMALL MOLECULE DIFFERENTIATION-INDUCING FACTOR” (priority 2007, published 2010):

Tests used:
CHO cells = assay: Cell viability (trypan blue exclusion) and apoptosis (caspase-3); format: cell-based
Text: (§1) For proliferation assays, 1×10^4 cells were deposited into 24-well plates and treated with vehicle (ethanol or DMSO) or with various amounts of DIF-1 or DIF-3 for a period of 4 days. Cells were harvested after each day by trypsin/EDTA treatment, stained with an equal volume of 0.05% Trypan blue and enumerated in triplicate twice using a haemocytometer. Dead cells are stained blue, but live cells with intact cell membranes are not coloured. Data represents the mean cell number±the standard deviation for at least 3 separate experiments.
Cells were harvested by the trypsin/EDTA treatment at the times indicated and counted with a haemocytometer.

[1] = system: CHO cells stably expressing human wild type APP^751 (CHO-7W); assay: Cell proliferation assay in APP-expressing CHO cells; format: cell-based, Chinese Hamster
Text: as §1
The levels of secreted Aβ from CHO-7W cells stably overexpressing APP^751 and CHO-CAB cells that overexpress APP^751 and human BACE1 was quantified by ELISA and viewed by western blot using the monoclonal anti-APP antibody (6E10) that recognizes residues 1-17 of Aβ. […] Since DIF-1 exerts a cytostatic effect, the cell number was counted for all treatments upon removal of the conditioned media and used to normalize the levels of Aβ. […] The concentration of Aβ40 and Aβ42 was subsequently detected in triplicate using the β-Amyloid 1-40 or 1-42 Colorimetric ELISA kit (Biosource International, Inc.) according to the manufacturer's instructions.
Cells seeded on a 6-well plate were incubated with various concentrations of DIF-1. Cells were harvested by the trypsin/EDTA treatment at the times indicated and counted with a haemocytometer. […]

CHO-7W cells = assay: Flow cytometry cell cycle distribution, CHO-7W; format: cell-based, Chinese Hamster; details: 25 μM
Experimental: Naïve and CHO-7W cells were collected by trypsin/EDTA treatment and counted using a haemocytometer. The cells (1×10^5) were deposited into 10 cm tissue culture dishes containing fresh media and grown for 24 hours prior to DIF-1 treatment (25 μM). Cells were grown in the presence of DIF-1 for approximately 20 hours. Cells harvested by the trypsin/EDTA treatment were suspended in hypotonic fluorochrome solution containing 50 ug/ml of propidium iodide, 0.1% sodium citrate, and 0.1% Triton X-100. Cells (5×10^4) for each sample were analyzed for fluorescence using the Massachusetts General Hospital cytology core. Cell cycle distribution was compared between vehicle and DIF-1 treated nave CHO cells, and CHO-7W cells. The percentage of cells in G0/G1, S-phase and G2/M represents the mean cell number±the standard deviation from at least 3 separate experiments.
CHO/APP cells were incubated with DIF-1 (25 μM) for the indicated periods and then harvested, fixed and stained with propidium iodide (PI) and fluorescence of nuclei was measured. Histogram peaks are labeled by phases. The percentages of cell number in the cell cycle phases are shown as means+/−S.E. of three independent experiments performed in duplicate. The effects of DIF-1 on CHO-7W cell growth is also a result of G0/G1 cell cycle block (50.1%±1.1) as measured by flow cytometry (FIG. 2B).

CHO-CAB cells = assay: Confocal fluorescence microscopy of CHO-CAB cells; format: cell-based, Chinese Hamster; details: 30 μM overnight
Experimental: CHO-CAB cells were grown on multi-well chamber slides and treated overnight with 30 μM DIF-1. The cells were fixed with 4% paraformaldehyde/PBS, permeabilized with 0.1% Triton X-100/PBS for 10 min and blocked with 5% goat serum/PBS. APP (rabbit C-terminal 8717), PDI (ER marker), GM130 (golgi marker), and ubiquitin were detected using their corresponding antibodies and Alexa Fluor-conjugated secondary antibodies. Nuclei were stained with Hoechst 33342 (Molecular Probes/Invitrogen). Confocal fluorescence images were obtained using an Olympus DSU/IX70 spinning disc confocal microscope and processed using IPLab software (Scanalytics/BD Biosciences).
Next, the effect of DIF-1 on APP trafficking and subcellular distribution was assessed. Cells were fixed with 4% paraformaldehyde/PBS, permeabilized with 0.1% Triton X-100/PBS and blocked with 5% goat serum/PBS. Confocal microscopy of CHO-CAB cells stained with APP antibodies together with the ER marker PDI or golgi marker GM130 confirmed that APP primarily co-localized with GM130 and PDI (FIG. 14A). […] ER structure upon DIF-1 treatment became highly vacuolated but to a varying degree within populations of cells.

human APLP1 = assay: APLP1 metabolism by western blot in CHO-A1 cells; format: cell-based; details: 30 μM DIF-1 or 250 nM DAPT, ~20 hours
Experimental: CHO cells that stably express human APLP1, which is a closely related family member of the APPs and known γ-secretase substrate (Eggert et al., 2004), were treated with 30 μM DIF-1, DAPT or DIF-1 plus DAPT (FIG. 7). Equal numbers of CHO-A1 cells stably expressing human APLP1 cells were plated in 6-well dishes and allowed to grow overnight. The next day, the media was removed and replaced with control media (2 ml) or media containing DAPT, DIF-1 or DAPT and DIF-1. […] After washing, blots were probed with HRP-conjugated secondary antibodies (1:5000) for 1 hour at room temperature.

Dictyostelium discoideum = details: Masento et al., 1988; cited from earlier work

Compound: CCCCCC(=O)c1c(O)c(Cl)c(OC)c(Cl)c1O [DIF-1, 1-[3,5-dichloro-2,6-dihydroxy-4-methoxyphenyl]-1-hexanone]
- cell adhesion, cell shape, apoptosis (caspase-3 activation) (CHO cells): did not effect cell adhesion, cell shape or induce apoptosis
- effect on cell viability (trypan blue exclusion) (CHO cells; any of the cell lines tested): no observable effect on cell viability
- total cell number of vehicle treated cells higher than DIF-1 treated cells ([1]; 25 μM, after 20 hours, CHO-7W and CHO-CAB): ~10%
- antiproliferative effect in CHO-7W compared to naïve cells (value in brackets, quantity not named) ([1]; CHO-7W): 30.6%±1.3
- G0/G1 cell cycle block (percentage of cells) (CHO-7W cells): 50.1%±1.1
- ER structure (PDI marker) (CHO-CAB cells): disruption in the structure of the ER
- subcellular distribution of APP (CHO-CAB cells): enriched around the nuclear periphery
- APLP1 maturation, protein levels, CTF levels (human APLP1): no effect on APLP1 maturation, protein levels or CTF production
- absolute specific activity in stalk-cell differentiation (Dictyostelium discoideum): sub-nanomolar range
